Literature values as cited in patent US20200038318A1, “ORAL MEDICATION FORMULATIONS” (GRUNBIOTICS PTY LTD, priority 2016, published 2020).

Test system: patients with major depressive disorder who have a partial response or no response to SSRIs
Settings: 15 mg/day

## CN1c2c([nH]c(N)nc2=O)NC[C@@H]1CNc1ccc(C(=O)N[C@@H](CCC(=O)O)C(=O)O)cc1 [L-methylfolate]
  Efficacy, safety and tolerability as adjunctive treatment: effective safe and relatively well tolerated
